Measured values: a melting point compilation (Tetko et al.)

Conditions: a range is the spread between reports

Row | melting point [°C] | Compound
1 | -116 to -112 | CC1CCC(C)C1C (centres undefined)
2 | 103 to 106 | O=C1CCCC(=O)C1
3 | 37 to 38 | COc1ccccc1C=O
4 | -130 | CCC1(C)CC1
5 | 59 to 61.5 | COc1ccc(C#N)cc1
6 | 172 to 177 | CO[C@@H]1O[C@H](CO)[C@H](O)[C@H](O)[C@H]1O
7 | 270 to 271 | O=C1OC(=O)c2cccc3cccc1c23
8 | 154 | COCCOc1c(OC)cc(Cc2cnc(N)nc2N)cc1OC
9 | 86 to 88 | Clc1cccc(Cl)n1
10 | 95 to 96 | Cc1cccc(C(N)=O)c1
11 | 218 to 220 | c1ccc(-c2ccnc3c2ccc2c(-c4ccccc4)ccnc23)cc1
12 | -23.2 to -23 | C=C(C)c1ccccc1
13 | 48 to 49 | CCOC(N)=O
14 | 158 to 160 | COc1ccc2c(c1)c(CC(=O)O)c(C)n2C(=O)c1ccc(Cl)cc1
15 | 114 to 117 | CC(=O)c1ccccc1C(=O)O
16 | 235 to 240 | CC12C=CC(=O)C=C1CCC1C2C(O)CC2(C)C1CCC2(O)C(=O)CO (centres undefined)
17 | 9 to 12.4 | O=Cc1ccccc1Cl
18 | 117 to 118 | O=Cc1ccc(O)cc1
19 | 20 | CC(C)(C)OC(=O)CCC(Cl)(Cl)Cl
20 | 94 to 96.5 | Cc1ccc(C(=O)c2ccc(C)cc2)cc1
21 | 278 to 283 | Oc1ccc(-c2ccc(O)cc2)cc1
22 | 79.5 to 82 | N#Cc1cccc(O)c1
23 | -133 | C=C(Br)CC
24 | 33 to 34 | CC(=O)c1ccc(Cl)cc1Cl

Row | melting point [°C] | Compound
25 | 191 to 192 | c1ccc(-c2nnc(-c3ccccn3)nc2-c2ccccc2)cc1
26 | 186 to 188 | CC(C)(C)c1cc(C=O)cc(C(C)(C)C)c1O
27 | -141 | C/C=C\CCC
28 | -93.5 to -93 | CC(C)CCOC=O
29 | -4 to -3.5 | CCCCCCC(O)CCCC (centres undefined)
30 | 142 to 147 | Cc1ccccc1C(N)=O
31 | 96 to 97 | CCNc1ccc([N+](=O)[O-])cc1
32 | 82 to 85.5 | O=[N+]([O-])c1cc(Br)ccc1Br
33 | 26 to 27 | C=CCOc1nc(OCC=C)nc(OCC=C)n1
34 | -41.2 to -41 | CC(C)(C)C1CCCCC1
35 | 9 to 13 | CCCCCCCCC(=O)CC
36 | 155 to 157 | O=C(O)c1cc(Br)ccc1Br
37 | -37 to -35 | C=CCCCCCCCCCC
38 | 156 to 161 | O=C(O)Cc1c(Cl)ccc(Cl)c1Cl
39 | 79 to 80 | NNC(=O)c1ccco1
40 | 105 to 107 | O=C(Oc1ccc2ccccc2c1)c1ccccc1
41 | 76 to 76.5 | CCCCCCCCCCCCCCCCCCCCCCCCCCCCCCCCCCCC
42 | 152 to 153 | O=C(O)CCCCC(=O)O
43 | 44 to 48.5 | COc1cccc(OC)c1OC
44 | -41 to -40.5 | Clc1ccc(Cl)s1
45 | -24 to -23.7 | Cc1cc(C)c(C)c(C)c1
46 | -132 | C#CCCCC
47 | 101 to 102 | CC(=O)n1ccnc1
48 | -15.2 to -15 | OCc1ccccc1

Row | melting point [°C] | Compound
49 | 89 to 92 | CC(C)(O)CCC(C)(C)O
50 | -7 to -6.5 | OCc1cccnc1
51 | 51.5 to 52 | CC(C)C(O)C(C)(C)CO (centres undefined)
52 | 104 to 106 | CCCCCCCCCCCCCC(N)=O
53 | 23.5 to 26 | C=Cc1ccc(N)cc1
54 | 197 to 200 | O=C1c2ccccc2C(=O)c2c(O)ccc(O)c21
55 | 146 to 148 | CC(=O)Nc1cccc(O)c1
56 | 178 to 182 | Brc1cc(Br)c(Br)cc1Br
57 | 48 to 48.5 | CCCCCCCCOc1ccc(C(=O)c2ccccc2)c(O)c1
58 | 56 to 57 | O=C(c1ccccc1)c1cccs1
59 | 68 to 71 | CC(C)(C)C(=O)CC#N
60 | -10 to -9 | CCCCCCCCCCCBr
61 | -35.5 to -35 | CCCCCCCC(C)O (centres undefined)
62 | -83.2 to -81 | C=CCCCCCCC
63 | -96.1 to -96 | C1CCSC1
64 | 41.5 to 44.5 | CCCCCCCCCCCCC(=O)O
65 | 11 to 14.5 | CN(C=O)c1ccccc1
66 | 61.3 to 62 | C1CCCCCCCCCCCCCC1
67 | 71 to 76 | CC(=O)c1cc2ccccc2o1
68 | 11 to 13.8 | CC(=O)C(=O)O
69 | 111 to 112 | C1CSCCS1
70 | 63.5 to 66 | C=C(C)c1ccc(C(=C)C)cc1
71 | 158 | CC1(O)CCC(C(C)(C)O)CC1 (centres undefined)
72 | 64 to 66 | N#Cc1cc(Cl)cc(Cl)c1

Row | melting point [°C] | Compound
73 | 123 to 125 | Nc1cccc(O)c1
74 | 137 to 140 | Cc1ncc([N+](=O)[O-])n1C
75 | -42 to -41.7 | Fc1ccc(C(F)(F)F)cc1
76 | -23.4 | c1cc[nH]c1
77 | 28 to 29 | OCCNCCO
78 | 48.5 to 53 | CCOC(=O)C(NC=O)C(=O)OCC
79 | 5 to 5.6 | CCCCCCCCCCCCCCBr
80 | 82 to 83 | Cc1c(C)c(C)c(CCl)c(C)c1C
81 | 82 to 83 | O=[N+]([O-])c1c(O)cccc1O
82 | 70.5 to 71.5 | O=Cc1c(Cl)cccc1Cl
83 | 57 to 59.5 | c1ccc2c(c1)Oc1ccccc1S2
84 | 40 to 41 | CCN(CC)c1ccc(C=O)cc1
85 | 55 to 58 | Nc1ccccc1I
86 | 116 to 119 | C=Cc1ccc(-c2ccccc2)cc1
87 | 171 to 174 | O=C(O)c1cc(Cl)ccc1O
88 | 313 to 314 | S=c1nc[nH]c2nc[nH]c12
89 | -39 to -35 | C=CCC(=O)O
90 | -42 to -41.2 | CCCC(O)CCC
91 | 216 to 217 | Oc1ccc2ccccc2c1-c1c(O)ccc2ccccc12
92 | 71 to 72 | O=[N+]([O-])c1c(Cl)cc(Cl)cc1Cl
93 | 39 to 40 | c1ccc(COc2ccccc2)cc1
94 | 89 to 92.5 | CN(C)c1ccc(C(=O)c2ccccc2)cc1
95 | 66 to 67 | O=C1C(Cl)=CC(=NCl)C=C1Cl

Row | Compound | melting point [°C]
96 | COP(=O)(NC(C)=O)SC (centres undefined) | 88 to 89
97 | CCCC(C)Br (centres undefined) | -96 to -95.5
98 | O=C1C(F)=C(F)C(=O)C(F)=C1F | 179 to 184
99 | CCCOC1CCC2(C)C(CC(=O)C3C2CCC2(C)C(OCCC)CCC32)C1 (centres undefined) | 161 to 163
100 | CC(=O)C(C)(C)C | -53 to -52
101 | Clc1ccccc1Cl | -18 to -16.7
102 | O=C(Cc1ccccc1)c1ccccc1 | 55 to 60
103 | CC(=O)c1ccc(-c2ccccc2)cc1 | 120 to 122
104 | C=CC#N | -84 to -83.5
105 | Clc1cccc(-c2ccccc2)c1 | 16 to 18
106 | O=[N+]([O-])c1ccc(Cl)c(Cl)c1Cl | 55 to 56
107 | c1ccc2sccc2c1 | 30 to 32
108 | Nc1c(Cl)cc([N+](=O)[O-])cc1Cl | 189 to 191
109 | ClCC(Cl)(Cl)Cl | -70.2 to -70
110 | Brc1ccc2ccccc2c1 | 54 to 59
111 | ClC(Br)Br | -22 to -20
112 | Clc1cc(Cl)c(Cl)cc1Cl | 139 to 140
113 | c1ccc2cc3c(cc2c1)-c1cccc2cccc-3c12 | 216 to 217
114 | ClCCCBr | -59 to -58.9
115 | BrCc1ccccc1CBr | 94 to 95
116 | CNc1ccc(Cl)cc1C(=O)c1ccccc1 | 94 to 96
117 | c1ccc2c(c1)Nc1ccccc1S2 | 184 to 188
118 | Cc1ccc([N+](=O)[O-])c(C)c1 | 6 to 9
119 | CC(C)c1ccc(CO)cc1 | 27 to 28
